Test results published in PubChem BioAssay (NCI).
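GI50 = concentration required for 50% inhibition of growth. TGI denotes the concentration required for complete inhibition of growth.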

Assays:
Experiment in all cases: NCI anticancer screen, dose series, 384-well format
OVCAR-3 ovarian = test system: OVCAR-3 ovarian
SF-539 CNS = test system: SF-539 CNS
HT29 colon = test system: HT29 colon
SF-295 CNS = test system: SF-295 CNS
HCC-2998 colon = test system: HCC-2998 colon
CCRF-CEM leukemia = test system: CCRF-CEM leukemia
A498 renal = test system: A498 renal
SF-268 CNS = test system: SF-268 CNS
SR leukemia = test system: SR leukemia
HOP-92 NSCLC = test system: HOP-92 NSCLC
BT-549 breast = test system: BT-549 breast
SN12C renal = test system: SN12C renal
SNB-19 CNS = test system: SNB-19 CNS
MDA-MB-468 breast = test system: MDA-MB-468 breast
UO-31 renal = test system: UO-31 renal
NCI-H522 lung = test system: NCI-H522 lung
COLO 205 colon = test system: COLO 205 colon
SW-620 colon = test system: SW-620 colon
LOX IMVI melanoma = test system: LOX IMVI melanoma
PC-3 prostate = test system: PC-3 prostate
KM12 colon = test system: KM12 colon
HS 578T breast = test system: HS 578T breast
OVCAR-4 ovarian = test system: OVCAR-4 ovarian
A549 NSCLC = test system: A549 NSCLC
SK-OV-3 ovarian = test system: SK-OV-3 ovarian
NCI-H322M lung = test system: NCI-H322M lung
UACC-62 melanoma = test system: UACC-62 melanoma
TK-10 renal = test system: TK-10 renal
SK-MEL-5 melanoma = test system: SK-MEL-5 melanoma
NCI-H23 lung = test system: NCI-H23 lung
SNB-75 CNS = test system: SNB-75 CNS
NCI-H226 lung = test system: NCI-H226 lung
MDA-MB-231 breast = test system: MDA-MB-231 breast
DU-145 prostate = test system: DU-145 prostate
MALME-3M melanoma = test system: MALME-3M melanoma
786-0 renal = test system: 786-0 renal
RPMI-8226 leukemia = test system: RPMI-8226 leukemia
HCT-116 colon = test system: HCT-116 colon
MCF7 breast = test system: MCF7 breast
NCI-H460 NSCLC = test system: NCI-H460 NSCLC
NCI/ADR-RES ovarian = test system: NCI/ADR-RES ovarian
HOP-62 NSCLC = test system: HOP-62 NSCLC
MDA-MB-435 melanoma = test system: MDA-MB-435 melanoma
RXF 393 renal = test system: RXF 393 renal
OVCAR-8 ovarian = test system: OVCAR-8 ovarian
T-47D breast = test system: T-47D breast
SK-MEL-28 melanoma = test system: SK-MEL-28 melanoma
UACC-257 melanoma = test system: UACC-257 melanoma
K-562 leukemia = test system: K-562 leukemia
MOLT-4 leukemia = test system: MOLT-4 leukemia
HCT-15 colon = test system: HCT-15 colon
IGROV1 ovarian = test system: IGROV1 ovarian
ACHN renal = test system: ACHN renal
HL-60(TB) leukemia = test system: HL-60(TB) leukemia
M14 melanoma = test system: M14 melanoma
U251 glioblastoma = test system: U251 glioblastoma
EKVX NSCLC = test system: EKVX NSCLC
CAKI-1 renal = test system: CAKI-1 renal

Which results are given for `Nc1ncccc1-c1nc2ccc(-c3ccccc3)nc2n1-c1ccc(C2(N)CCC2)cc1`?
GI50 (OVCAR-3 ovarian): 0.476 µM; TGI (OVCAR-3 ovarian): 2.05 µM; GI50 (SF-539 CNS): 1.16 µM; TGI (SF-539 CNS): 2.38 µM; GI50 (HT29 colon): 1.1 µM; TGI (HT29 colon): 2.34 µM; GI50 (SF-295 CNS): 1.05 µM; TGI (SF-295 CNS): 2.23 µM; GI50 (HCC-2998 colon): 1.35 µM; TGI (HCC-2998 colon): 2.64 µM; GI50 (CCRF-CEM leukemia): 0.285 µM; TGI (CCRF-CEM leukemia): 1.76 µM; GI50 (A498 renal): 0.234 µM; TGI (A498 renal): 1.31 µM; GI50 (SF-268 CNS): 1.59 µM; TGI (SF-268 CNS): 2.96 µM; GI50 (SR leukemia): 0.0966 µM; TGI (SR leukemia): 1.26 µM; GI50 (HOP-92 NSCLC): 1.4 µM; TGI (HOP-92 NSCLC): 3.12 µM; GI50 (BT-549 breast): 1.05 µM; TGI (BT-549 breast): 2.25 µM; GI50 (SN12C renal): 2.39 µM; TGI (SN12C renal): 14.4 µM; GI50 (SNB-19 CNS): 1.76 µM; TGI (SNB-19 CNS): 3.17 µM; GI50 (MDA-MB-468 breast): 0.226 µM; TGI (MDA-MB-468 breast): 1.42 µM; GI50 (UO-31 renal): 1.32 µM; TGI (UO-31 renal): 2.6 µM; GI50 (NCI-H522 lung): 1.56 µM; TGI (NCI-H522 lung): 2.9 µM; GI50 (COLO 205 colon): 1.03 µM; TGI (COLO 205 colon): 2.21 µM; GI50 (SW-620 colon): 1.79 µM; TGI (SW-620 colon): 3.18 µM; GI50 (LOX IMVI melanoma): 1.74 µM; TGI (LOX IMVI melanoma): 3.11 µM; GI50 (PC-3 prostate): 0.139 µM; TGI (PC-3 prostate): 1.63 µM; GI50 (KM12 colon): 1.54 µM; TGI (KM12 colon): 3.27 µM; GI50 (HS 578T breast): 1.03 µM; TGI (HS 578T breast): 2.2 µM; GI50 (OVCAR-4 ovarian): 3.62 µM; TGI (OVCAR-4 ovarian): 12.1 µM; GI50 (A549 NSCLC): 1.76 µM; TGI (A549 NSCLC): 4.17 µM; GI50 (SK-OV-3 ovarian): 0.547 µM; TGI (SK-OV-3 ovarian): 2.19 µM; GI50 (NCI-H322M lung): 1.38 µM; TGI (NCI-H322M lung): 2.96 µM; GI50 (UACC-62 melanoma): 1.16 µM; TGI (UACC-62 melanoma): 2.39 µM; GI50 (TK-10 renal): 1.24 µM; TGI (TK-10 renal): 2.6 µM; GI50 (SK-MEL-5 melanoma): 1.45 µM; TGI (SK-MEL-5 melanoma): 2.77 µM; GI50 (NCI-H23 lung): 2.4 µM; TGI (NCI-H23 lung): 8.07 µM; GI50 (SNB-75 CNS): 0.597 µM; TGI (SNB-75 CNS): 2.02 µM; GI50 (NCI-H226 lung): 1.42 µM; TGI (NCI-H226 lung): 3.34 µM; GI50 (MDA-MB-231 breast): 1.43 µM; TGI (MDA-MB-231 breast): 2.79 µM; GI50 (DU-145 prostate): 2.42 µM; TGI (DU-145 prostate): 8.3 µM; GI50 (MALME-3M melanoma): 0.464 µM; TGI (MALME-3M melanoma): 1.91 µM; GI50 ([…]-0 renal): 1.04 µM; TGI (786-0 renal): 2.22 µM; GI50 (RPMI-8226 leukemia): 1.42 µM; TGI (RPMI-8226 leukemia): 2.72 µM; GI50 (HCT-116 colon): 1.5 µM; TGI (HCT-116 colon): 2.83 µM; GI50 (MCF7 breast): 0.0963 µM; TGI (MCF7 breast): 1.54 µM; GI50 (NCI-H460 NSCLC): 0.359 µM; TGI (NCI-H460 NSCLC): 1.82 µM; GI50 (NCI/ADR-RES ovarian): 1.95 µM; TGI (NCI/ADR-RES ovarian): 4.12 µM; GI50 (HOP-62 NSCLC): 1.61 µM; TGI (HOP-62 NSCLC): 3.02 µM; GI50 (MDA-MB-435 melanoma): 1.75 µM; TGI (MDA-MB-435 melanoma): 3.13 µM; GI50 (RXF 393 renal): 0.582 µM; TGI (RXF 393 renal): 1.91 µM; GI50 (OVCAR-8 ovarian): 1.43 µM; TGI (OVCAR-8 ovarian): 2.75 µM; GI50 (T-47D breast): 0.0355 µM; TGI (T-47D breast): 1.04 µM; GI50 (SK-MEL-28 melanoma): 1.22 µM; TGI (SK-MEL-28 melanoma): 2.46 µM; GI50 (UACC-257 melanoma): 1.46 µM; TGI (UACC-257 melanoma): 2.77 µM; GI50 (K-562 leukemia): 1.6 µM; TGI (K-562 leukemia): 2.95 µM; GI50 (MOLT-4 leukemia): 0.154 µM; TGI (MOLT-4 leukemia): 1.21 µM; GI50 (HCT-15 colon): 1.24 µM; TGI (HCT-15 colon): 2.49 µM; GI50 (IGROV1 ovarian): 0.187 µM; TGI (IGROV1 ovarian): 1.81 µM; GI50 (ACHN renal): 1.72 µM; TGI (ACHN renal): 4.04 µM; GI50 (HL-60(TB) leukemia): 1.82 µM; TGI (HL-60(TB) leukemia): 3.21 µM; GI50 (M14 melanoma): 1.37 µM; TGI (M14 melanoma): 2.66 µM; GI50 (U251 glioblastoma): 1.46 µM; TGI (U251 glioblastoma): 2.77 µM; GI50 (EKVX NSCLC): 1.64 µM; TGI (EKVX NSCLC): 5.08 µM; GI50 (CAKI-1 renal): 1.05 µM; TGI (CAKI-1 renal): 2.27 µM
